Assay results as given in patent US10226048B2 (priority 2014, dated 2019).
Read-outs that look alike come from different tables or passages of the source.

Experiments:
[1] = Stability of PAA/NVPA in alkaline solution (ion-exchange chromatography); assay type: physicochemical; conditions: for total PAA decomposed: pH adjusted to 9.3 with sodium hydroxide
Method: PAA is not very stable in both acidic and basic solutions (reactions 2 and 3), and is decomposed into acetic acid and oxygen easily. Additionally, PAA is decomposed by metal catalysis and hydrolysis, respectively, in an aqueous solution. […] When sodium hydroxide was used to adjust the pH of PAA solution to 9.3, about 80% of the total PAA were decomposed in 1 minute, with more than 90% being decomposed in 5 minutes. (FIG. 4).
Rapid decomposition of PAA will result in a loss of the disinfecting ability. Thus, it is critical to maintain PAA relatively stable in an alkaline solution. When pH was adjusted partially by sodium carbonate, greater than 90% of the total PAA was maintained in the 10 minutes (FIG. 4). The addition of a metal complexing agent, such as sodium pyrophosphate, etc., may be used to stabilize PAA. It is very important to maintain a relatively long pot-life of NVPA, because some microorganisms are difficult to being killed. Such microorganisms may require at least 3-5-minutes of contact time with the disinfecting detergent. Since NVPA is not very stable, the formulation of the invention is divided to two parts to preserve a long shelf life of PAA. The two parts will be mixed just prior to use. After mixing, PAA will be converted to NVPA and 90% of the total PAA will remain for at least 10 minutes.
FIG. 4. The pH of PAA solution was 9.3. The initial concentrations of PAA and HP were 0.2% (w/w %) and 4% (w/w %), respectively. The pH of the solution was adjusted by sodium hydroxide solution or sodium phosphate solution, and sodium carbonate or a stabilizer such like sodium pyrophosphate was used to stabilize PAA. The quantitative determination of PAA/NVPA was performed by ion-exchange chromatography.

[2] = Dissociation of PAA in aqueous solution; conditions: pH 9.5
E-Coli = conditions: 2% HP
[3] = test system: Staphylococcus Epidermidis; conditions: 2% HP

SMILES | total PAA maintained ([1]; pH adjusted partially by sodium carbonate, in 10 minutes) | total PAA decomposed ([1]; in 1 minute) | total PAA decomposed ([1]; in 5 minutes) | share of initial PAA concentration existing in this state [2] | Disinfecting efficacy (E-Coli; contact time 1 minute) | Disinfecting efficacy (E-Coli; contact time 2 minutes) | Disinfecting efficacy ([3]; contact time 1 minute) | Disinfecting efficacy ([3]; contact time 2 minutes)
CC(=O)OO [PAA, Peracetic Acid] | greater than 90% | about 80% | more than 90% | 5% |  |  |  | 
CC(=O)OO [NVPA, non-volatile peracetate] |  |  |  | 95% |  |  |  | 
OO [HP, hydrogen peroxide] |  |  |  |  | ~90% | ~99% | ~90% | ~99%
